From ChEMBL document CHEMBL1126257, “Fluoronaphthyridines and -quinolones as antibacterial agents. 5. Synthesis and antimicrobial activity of chiral 1-tert-butyl-6-fluoro-7-substituted-naphthyridones” (J Med Chem, 1992)
Values after ≈ are worked out from the molar mass of the structure shown.

Test system: Serratia marcescens
Assay: In vitro antibacterial activity against Serratia marcescens A 20019.
Assay type: functional
Conditions: Serratia marcescens; read-out: MIC

MIC [µg/mL] | Structure (SMILES)
1 (≈ 2.66 µM) | CN(C)[C@H]1CCN(c2nc3c(cc2F)c(=O)c(C(=O)O)cn3C(C)(C)C)C1
0.25 (≈ 0.664 µM) | CC1(C)CN(c2nc3c(cc2F)c(=O)c(C(=O)O)cn3C(C)(C)C)C[C@@H]1N
0.5 (≈ 1.38 µM) | C[C@H]1C[C@@H](N)CN1c1nc2c(cc1F)c(=O)c(C(=O)O)cn2C(C)(C)C

Structure (SMILES) | MIC [µg/mL]
CC(C)(C)n1cc(C(=O)O)c(=O)c2cc(F)c(N3CC[C@@H](N)C3)nc21 | 0.25 (≈ 0.718 µM)

Test system: Enterococcus faecalis
Assay: In vitro antibacterial activity against Enterococcus faecalis A9809.
Assay type: functional
Conditions: Enterococcus faecalis; read-out: MIC

MIC [µg/mL] | Structure (SMILES)
0.5 (≈ 1.33 µM) | CN(C)[C@H]1CCN(c2nc3c(cc2F)c(=O)c(C(=O)O)cn3C(C)(C)C)C1
4 (≈ 10.6 µM) | CC1(C)CN(c2nc3c(cc2F)c(=O)c(C(=O)O)cn3C(C)(C)C)C[C@@H]1N
0.25 (≈ 0.69 µM) | C[C@H]1C[C@@H](N)CN1c1nc2c(cc1F)c(=O)c(C(=O)O)cn2C(C)(C)C

Structure (SMILES) | MIC [µg/mL]
CC(C)(C)n1cc(C(=O)O)c(=O)c2cc(F)c(N3CC[C@@H](N)C3)nc21 | 0.13 (≈ 0.373 µM)

Test system: Klebsiella pneumoniae
Assay: In vivo potency on systemic infection caused by Klebsiella pneumoniae A 9664 after oral administration to mice expressed as median protective dose.
Assay type: functional
Conditions: read-out: PD50

Structure (SMILES) | ED50 [mg/kg]
CC(C)(C)n1cc(C(=O)O)c(=O)c2cc(F)c(N3CC[C@@H](N)C3)nc21 | 4.9

Test system: Klebsiella pneumoniae
Assay: In vitro antibacterial activity against Klebsiella pneumoniae A 9664.
Assay type: functional
Conditions: Klebsiella pneumoniae; read-out: MIC

MIC [µg/mL] | Structure (SMILES)
0.06 (≈ 0.159 µM) | CN(C)[C@H]1CCN(c2nc3c(cc2F)c(=O)c(C(=O)O)cn3C(C)(C)C)C1
0.25 (≈ 0.664 µM) | CC1(C)CN(c2nc3c(cc2F)c(=O)c(C(=O)O)cn3C(C)(C)C)C[C@@H]1N
0.06 (≈ 0.166 µM) | C[C@H]1C[C@@H](N)CN1c1nc2c(cc1F)c(=O)c(C(=O)O)cn2C(C)(C)C

Structure (SMILES) | MIC [µg/mL]
CC(C)(C)n1cc(C(=O)O)c(=O)c2cc(F)c(N3CC[C@@H](N)C3)nc21 | 0.13 (≈ 0.373 µM)

Test system: Enterobacter cloacae
Assay: In vitro antibacterial activity against Enterobacter cloacae A 9656.
Assay type: functional
Conditions: Enterobacter cloacae; read-out: MIC

MIC [µg/mL] | Structure (SMILES)
0.03 (≈ 0.0797 µM) | CN(C)[C@H]1CCN(c2nc3c(cc2F)c(=O)c(C(=O)O)cn3C(C)(C)C)C1
0.25 (≈ 0.664 µM) | CC1(C)CN(c2nc3c(cc2F)c(=O)c(C(=O)O)cn3C(C)(C)C)C[C@@H]1N
0.03 (≈ 0.0828 µM) | C[C@H]1C[C@@H](N)CN1c1nc2c(cc1F)c(=O)c(C(=O)O)cn2C(C)(C)C

Structure (SMILES) | MIC [µg/mL]
CC(C)(C)n1cc(C(=O)O)c(=O)c2cc(F)c(N3CC[C@@H](N)C3)nc21 | 0.06 (≈ 0.172 µM)

Test system: Enterococcus faecium
Assay: In vitro antibacterial activity against Enterococcus faecium A 24885.
Assay type: functional
Conditions: Enterococcus faecium; read-out: MIC

MIC [µg/mL] | Structure (SMILES)
4 (≈ 10.6 µM) | CN(C)[C@H]1CCN(c2nc3c(cc2F)c(=O)c(C(=O)O)cn3C(C)(C)C)C1
4 (≈ 10.6 µM) | CC1(C)CN(c2nc3c(cc2F)c(=O)c(C(=O)O)cn3C(C)(C)C)C[C@@H]1N
2 (≈ 5.52 µM) | C[C@H]1C[C@@H](N)CN1c1nc2c(cc1F)c(=O)c(C(=O)O)cn2C(C)(C)C

Structure (SMILES) | MIC [µg/mL]
CC(C)(C)n1cc(C(=O)O)c(=O)c2cc(F)c(N3CC[C@@H](N)C3)nc21 | 1 (≈ 2.87 µM)

Test system: Staphylococcus aureus
Assay: In vitro antibacterial activity against Staphylococcus aureus A9537.
Assay type: functional
Conditions: Staphylococcus aureus; read-out: MIC

MIC [µg/mL] | Structure (SMILES)
0.03 (≈ 0.0797 µM) | CN(C)[C@H]1CCN(c2nc3c(cc2F)c(=O)c(C(=O)O)cn3C(C)(C)C)C1
0.03 (≈ 0.0797 µM) | CC1(C)CN(c2nc3c(cc2F)c(=O)c(C(=O)O)cn3C(C)(C)C)C[C@@H]1N
0.015 (≈ 0.0414 µM) | C[C@H]1C[C@@H](N)CN1c1nc2c(cc1F)c(=O)c(C(=O)O)cn2C(C)(C)C

Structure (SMILES) | MIC [µg/mL]
CC(C)(C)n1cc(C(=O)O)c(=O)c2cc(F)c(N3CC[C@@H](N)C3)nc21 | 0.015 (≈ 0.0431 µM)

Test system: Morganella morganii
Assay: In vitro antibacterial activity against Morganella morganii A 15153.
Assay type: functional
Conditions: Morganella morganii; read-out: MIC

MIC [µg/mL] | Structure (SMILES)
0.25 (≈ 0.664 µM) | CC1(C)CN(c2nc3c(cc2F)c(=O)c(C(=O)O)cn3C(C)(C)C)C[C@@H]1N
0.5 (≈ 1.38 µM) | C[C@H]1C[C@@H](N)CN1c1nc2c(cc1F)c(=O)c(C(=O)O)cn2C(C)(C)C

Structure (SMILES) | MIC [µg/mL]
CC(C)(C)n1cc(C(=O)O)c(=O)c2cc(F)c(N3CC[C@@H](N)C3)nc21 | 0.25 (≈ 0.718 µM)

Test system: Pseudomonas aeruginosa
Assay: In vitro antibacterial activity against Pseudomonas aeruginosa A 9243.
Assay type: functional
Conditions: Pseudomonas aeruginosa; read-out: MIC

MIC [µg/mL] | Structure (SMILES)
2 (≈ 5.31 µM) | CN(C)[C@H]1CCN(c2nc3c(cc2F)c(=O)c(C(=O)O)cn3C(C)(C)C)C1
4 (≈ 10.6 µM) | CC1(C)CN(c2nc3c(cc2F)c(=O)c(C(=O)O)cn3C(C)(C)C)C[C@@H]1N
2 (≈ 5.52 µM) | C[C@H]1C[C@@H](N)CN1c1nc2c(cc1F)c(=O)c(C(=O)O)cn2C(C)(C)C

Structure (SMILES) | MIC [µg/mL]
CC(C)(C)n1cc(C(=O)O)c(=O)c2cc(F)c(N3CC[C@@H](N)C3)nc21 | 0.25 (≈ 0.718 µM)

Test system: Escherichia coli
Assay: In vivo potency on systemic infection caused Escherichia coli A 15119 by after oral administration to mice expressed as median protective dose.
Assay type: functional
Conditions: read-out: PD50

Structure (SMILES) | ED50 [mg/kg]
CC(C)(C)n1cc(C(=O)O)c(=O)c2cc(F)c(N3CC[C@@H](N)C3)nc21 | 4.9

Test system: Escherichia coli
Assay: In vitro antibacterial activity against Escherichia coli A 15119.
Assay type: functional
Conditions: Escherichia coli; read-out: MIC

MIC [µg/mL] | Structure (SMILES)
0.015 (≈ 0.0398 µM) | CN(C)[C@H]1CCN(c2nc3c(cc2F)c(=O)c(C(=O)O)cn3C(C)(C)C)C1
0.06 (≈ 0.159 µM) | CC1(C)CN(c2nc3c(cc2F)c(=O)c(C(=O)O)cn3C(C)(C)C)C[C@@H]1N
0.03 (≈ 0.0828 µM) | C[C@H]1C[C@@H](N)CN1c1nc2c(cc1F)c(=O)c(C(=O)O)cn2C(C)(C)C

Structure (SMILES) | MIC [µg/mL]
CC(C)(C)n1cc(C(=O)O)c(=O)c2cc(F)c(N3CC[C@@H](N)C3)nc21 | 0.06 (≈ 0.172 µM)
